Source: patent US20100003217A1, “Compounds and Pharmaceutical Compositions for the Treatment of Viral Infections” (priority 2008, published 2010)
Several values for one entry are separate records, joined by “and”; a condition that tells them apart may be missing. Equal entries are not always repeated.

Test system: human primary hepatocytes
Test: Metabolic disposition of [^14C]-Compound 1 and [^14C]-2′-C-methyl guanosine in human primary hepatocytes (incubation medium, cellular extracts, nucleotide levels)
Type: in vitro ADME
Method: Primary hepatocytes: Freshly isolated cells from animal and human liver were obtained in suspension on ice. Cells were pelleted by centrifugation at 70-75×g (rat) or 95-90×g (monkey and human) and resuspended at 0.8 million cells per mL of platting medium (William's E supplemented with 5% FBS, 0.5% penicillin-streptomycin, 1% L-glutamine, 4 μg/mL insulin and 1 μM dexamethasone). Multi-well collagen I-coated plates (rat tail collagen type I; 12- or 6-well) were then seeded by addition of 1 mL (12-well; 0.8 million cells/well) or 2 mL (6-well; 1.6 million cells/well) of cell suspension. The plates were gently shaken to evenly distribute the cells and placed in an incubator at 37° C. for approximately 4 to 6 hours to allow cells to attach. Once cells were attached, the platting medium was removed and replaced with hepatocyte culture medium (William's E supplemented with penicillin-streptomycin, 1% L-glutamine, 1% insulin-transferrin-selenium and 0.1 μM dexamethasone). Cells were left overnight in an incubator at 37° C. to acclimatize to culture and the medium.
Hepatocyte incubations with radiolabeled Compound 1 and 2′-C-methyl guanosine, both labeled in the C-8 position of the guanine moiety, were conducted at a final volume of 2.0 mL hepatocyte culture medium/well ([…]). Culture medium from overnight incubation of cells was removed and replaced with fresh medium, pre-warmed to 37° C., containing 1 or 10 μM [^14C]-Compound 1 ([…]) or [^14C]-2′-C-methyl guanosine (127 DPM/μmol) from a stock solution in DMSO (final DMSO concentration was 0.1%) or 50% ethanol (final ethanol concentration was 0.2%). After 1, 4, 8 and 24 hours, 0.5-1.0 mL of incubation medium was removed and stored at −20° C. until analysis (described below). The remaining medium was discarded and cell monolayers were carefully washed two times with ice-cold PBS. Following the last wash, all PBS was carefully removed and 1.0 mL of extraction solution (ice-cold 70% methanol) added. Cells were scrapped off and suspended in the extraction solution, transferred to 2 mL polypropylene microfuge tubes and intracellular contents extracted overnight at −20° C.
Preliminary identification of putative metabolites was conducted by comparing the retention time of observed metabolites in incubation medium and cellular extracts with retention times obtained with chemically synthesized standards using the chromatography conditions described below. Further identification of 2′-C-methyl guanosine nucleotides (mono-, di- and triphosphate) was carried out by incubating cellular extract samples with alkaline phosphatase (10 units for 60 min at 37° C.) and comparing the HPLC retention times of the resulting nucleosides with that of authentic 2′-C-methyl guanosine.
Cellular extracts were prepared by centrifugation at 16,000 RCF using an Eppendorf microcentrifuge (Eppendorf, Model 5415D) for 10 min to remove cellular debris. An aliquot of 5-10 μL of the supernatant was added to 5 mL of EcoLite™ (MP, Irvine, Calif.) liquid scintillation cocktail and radioactivity measured by liquid scintillation counting (LSC) using a Beckman Coulter LS6500 multipurpose liquid scintillation counter (Beckman Instruments, Fullerton, Calif.). The remaining sample was then dried using a Labconco refrigerated centrivap concentrator (Labconco, Kansas City, Mo.). Dry extracts were reconstituted in 120 μL of HPLC-grade water and centrifuged at 16,000 RCF using an Eppendorf microcentrifuge for 10 min. Prior to HPLC analysis (described below), radioactivity of the concentrated extracts was measured by LSC using 5 μL aliquots. Extraction recovery was then determined by comparing total radioactivity in extracts before and after drying. The remaining extract was then analyzed by HPLC with online radioactivity detection using a Flow Scintillation Analyzer Radiomatic™ 515TR. Radioactivity in the separated components was quantified by integrating the peaks using Flo-One™ Software (Perkin Elmer Life Sciences). […]

[1] = human hepatocytes (Hu775), 1 μM [^14C]-Compound 1, 0 h
[2] = human hepatocytes (Hu775), 1 μM [^14C]-Compound 1, 1 h
[3] = human hepatocytes (Hu775), 1 μM [^14C]-Compound 1, 8 h
[4] = human hepatocytes (Hu775), 1 μM [^14C]-Compound 1, 24 h
[5] = human hepatocytes Hu775, 1 μM [^14C]-2′-C-methyl guanosine, 1 h
[6] = human hepatocytes Hu775, 1 μM [^14C]-2′-C-methyl guanosine, 8 h
[7] = human hepatocytes Hu775, 1 μM [^14C]-2′-C-methyl guanosine, 24 h

metabolites observed in cellular extracts (% of total radioactivity) (human hepatocytes (Hu759, Hu775), 10 μM [^14C]-2′-C-methyl guanosine, 8 h): 1.89% and 1.11%
metabolites observed in cellular extracts (% of total radioactivity) (human hepatocytes (Hu759, Hu775), 10 μM [^14C]-2′-C-methyl guanosine, 24 h): 3.82% and 3.41%
metabolites observed in cellular extracts (% of total radioactivity) (human hepatocytes (Hu759, Hu775), 10 μM [^14C]-Compound 1, 1 h): 6.44% and 8.77%
metabolites observed in cellular extracts (% of total radioactivity) (human hepatocytes (Hu759, Hu775), 10 μM [^14C]-Compound 1, 4 h): 5.70% and 5.54%
metabolites observed in cellular extracts (% of total radioactivity) (human hepatocytes (Hu759, Hu775), 10 μM [^14C]-Compound 1, 8 h): 7.99% and 4.44%
metabolites observed in cellular extracts (% of total radioactivity) (human hepatocytes (Hu759, Hu775), 10 μM [^14C]-Compound 1, 24 h): 5.38% and 12.8%
metabolites observed in medium (% of total radioactivity) [1]: BLD
2′-C-methyl guanosine nucleotide levels in cellular extracts [2]: 2.40 pmol/million cells
metabolites observed in cellular extracts (% of total radioactivity) [2]: 5.45%
metabolites observed in medium (% of total radioactivity) [2]: BLD
2′-C-methyl guanosine nucleotide levels in cellular extracts [3]: 2.10 pmol/million cells
metabolites observed in cellular extracts (% of total radioactivity) [3]: 3.60%
metabolites observed in medium (% of total radioactivity) [3]: 10.4%
2′-C-methyl guanosine nucleotide levels in cellular extracts [4]: 5.80 pmol/million cells
metabolites observed in cellular extracts (% of total radioactivity) [4]: 6.41%
metabolites observed in medium (% of total radioactivity) [4]: 8% and 8.29%
metabolites observed in medium (% of total radioactivity) (human hepatocytes (lots Hu759, Hu775), 10 μM [^14C]-Compound 1, 0 h): BLD
metabolites observed in medium (% of total radioactivity) (human hepatocytes (lots Hu759, Hu775), 10 μM [^14C]-Compound 1, 1 h): 4.4% and 0.5%
metabolites observed in medium (% of total radioactivity) (human hepatocytes (lots Hu759, Hu775), 10 μM [^14C]-Compound 1, 4 h): 3.9% and 4.5%
metabolites observed in medium (% of total radioactivity) (human hepatocytes (lots Hu759, Hu775), 10 μM [^14C]-Compound 1, 8 h): 5.1% and 7.2%
metabolites observed in medium (% of total radioactivity) (human hepatocytes (lots Hu759, Hu775), 10 μM [^14C]-Compound 1, 24 h): 4.7% and 7.1%
2′-C-methyl guanosine nucleotide levels in cellular extracts (human hepatocytes Hu759, 10 μM [^14C]-2′-C-methyl guanosine, 0 h): 0 pmol/million cells
2′-C-methyl guanosine nucleotide levels in cellular extracts (human hepatocytes Hu759, 10 μM [^14C]-2′-C-methyl guanosine, 8 h): 9.00 pmol/million cells
2′-C-methyl guanosine nucleotide levels in cellular extracts (human hepatocytes Hu759, 10 μM [^14C]-2′-C-methyl guanosine, 24 h): 23.0 pmol/million cells
2′-C-methyl guanosine nucleotide levels in cellular extracts (human hepatocytes Hu759, 10 μM [^14C]-Compound 1, 0 h): 0 pmol/million cells
2′-C-methyl guanosine nucleotide levels in cellular extracts (human hepatocytes Hu759, 10 μM [^14C]-Compound 1, 1 h): 4.00 pmol/million cells
2′-C-methyl guanosine nucleotide levels in cellular extracts (human hepatocytes Hu759, 10 μM [^14C]-Compound 1, 4 h): 15.0 pmol/million cells
2′-C-methyl guanosine nucleotide levels in cellular extracts (human hepatocytes Hu759, 10 μM [^14C]-Compound 1, 8 h): 25.0 pmol/million cells
2′-C-methyl guanosine nucleotide levels in cellular extracts (human hepatocytes Hu759, 10 μM [^14C]-Compound 1, 24 h): 28.0 pmol/million cells
2′-C-methyl guanosine nucleotide levels in cellular extracts [7]: 1.50 pmol/million cells
Major metabolites observed in cellular extracts (% of total radioactivity) [7]: 3.39 % of total radioactivity
2′-C-methyl guanosine nucleotide levels in cellular extracts (human hepatocytes Hu775, 10 μM [^14C]-2′-C-methyl guanosine, 0 h): 0 pmol/million cells
2′-C-methyl guanosine nucleotide levels in cellular extracts (human hepatocytes Hu775, 10 μM [^14C]-2′-C-methyl guanosine, 1 h): 2.80 pmol/million cells
2′-C-methyl guanosine nucleotide levels in cellular extracts (human hepatocytes Hu775, 10 μM [^14C]-2′-C-methyl guanosine, 4 h): 4.00 pmol/million cells
2′-C-methyl guanosine nucleotide levels in cellular extracts (human hepatocytes Hu775, 10 μM [^14C]-2′-C-methyl guanosine, 8 h): 4.90 pmol/million cells
2′-C-methyl guanosine nucleotide levels in cellular extracts (human hepatocytes Hu775, 10 μM [^14C]-2′-C-methyl guanosine, 24 h): 16.0 pmol/million cells
2′-C-methyl guanosine nucleotide levels in cellular extracts (human hepatocytes Hu775, 10 μM [^14C]-Compound 1, 0 h): 0 pmol/million cells
2′-C-methyl guanosine nucleotide levels in cellular extracts (human hepatocytes Hu775, 10 μM [^14C]-Compound 1, 1 h): 10.3 pmol/million cells
2′-C-methyl guanosine nucleotide levels in cellular extracts (human hepatocytes Hu775, 10 μM [^14C]-Compound 1, 4 h): 17.1 pmol/million cells
2′-C-methyl guanosine nucleotide levels in cellular extracts (human hepatocytes Hu775, 10 μM [^14C]-Compound 1, 8 h): 21.9 pmol/million cells
2′-C-methyl guanosine nucleotide levels in cellular extracts (human hepatocytes Hu775, 10 μM [^14C]-Compound 1, 24 h): 121 pmol/million cells
Structure (SMILES): C[C@@]1(O)[C@H](O)[C@@H](COP(=O)(O)O)O[C@H]1n1cnc2c(=O)[nH]c(N)nc21 [Compound 5, [(2R)-2-methyl-β-D-ribofuranosyl]guanine 5′-monophosphate]
2′-C-methyl guanosine nucleotide levels in cellular extracts [1]: BLD^a (BLD = below limit of detection (0.02 pmol/million cells))
2′-C-methyl guanosine nucleotide levels in cellular extracts (human hepatocytes Hu759, 10 μM [^14C]-2′-C-methyl guanosine, 1 h): BLD^a (BLD = below limit of detection (0.02 pmol/million cells))
2′-C-methyl guanosine nucleotide levels in cellular extracts (human hepatocytes Hu759, 10 μM [^14C]-2′-C-methyl guanosine, 4 h): BLD (BLD = below limit of detection (0.02 pmol/million cells))
2′-C-methyl guanosine nucleotide levels in cellular extracts (human hepatocytes Hu775, 1 μM [^14C]-2′-C-methyl guanosine, 0 h): BLD (BLD = below limit of detection (0.02 pmol/million cells))
2′-C-methyl guanosine nucleotide levels in cellular extracts [5]: BLD (BLD = below limit of detection (0.02 pmol/million cells))
Major metabolites observed in cellular extracts (% of total radioactivity) [5]: BLD^a (BLD = below limit of detection (30 DPM))
2′-C-methyl guanosine nucleotide levels in cellular extracts [6]: BLD (BLD = below limit of detection (0.02 pmol/million cells))
Major metabolites observed in cellular extracts (% of total radioactivity) [6]: BLD (BLD = below limit of detection (30 DPM))
